According to publication PMC7413254 (Nature Communications, 2020):
Read-outs that look alike come from different tables or passages of the source.

Key:
non-expressing oocytes [1] = test: cells; assay type: cell-based, Xenopus laevis; settings: Xenopus laevis, total [3H]CQ transport; for inhibition at 500 µM: [test solute] = 0.5 mM; for inhibition at 1000 µM: [test solute] = 1 mM; for inhibition at 2000 µM: [test solute] = 2 mM
Method in brief: (§1)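 Using pH 5.5 ND96 at 27.5 °C, uptake is followed for 1.5 h, stopped with ice-cold buffer, and quantified as accumulated radioactivity per oocyte after SDS lysis.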

PfCRT [2] = test: Test of solutes as potential co-substrates for influx of VF-6 via PfCRT into the oocyte; assay type: cell-based, Plasmodium falciparum; set-up: key: X: Compounds that have been tested as potential co-substrates but are not required for influx of VF-6 via PfCRT into the oocyte; settings: X = tested
PfCRT^3D7 [3] = molecular target: T1, PfCRT^3D7 (Plasmodium falciparum, UniProt Q8IBZ9); test: cell-based; assay type: cell-based; settings: total [3H]CQ transport; for inhibition at 500 µM: [test solute] = 0.5 mM; for inhibition at 1000 µM: [test solute] = 1 mM; for inhibition at 2000 µM: [test solute] = 2 mM
Method in brief: as §1

PfCRT^3D7 [4] = molecular target: T1, PfCRT^3D7; test: cell-based; assay type: cell-based
Method in brief: (§2)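 Oocytes (ten per treatment, ≥4 independent frogs/days) were preloaded by injecting VF-6 in 25 nL ND96 at pH 5.0, 5.5, 6.0 or 7.0, or Na^+-free choline buffer, then uptake run 1.5 h, 27.5 °C, ND96 pH 5.5 by default. Internal concentrations assumed ~400 nL oocyte volume.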

PfCRT^Ecu1110 [5] = molecular target: T2, PfCRT^Ecu1110 (Plasmodium falciparum, UniProt Q9N623, A220S/I356L/K76T/N326D); test: cell-based; assay type: cell-based; settings: […]
Method in brief: as §2

PfNT1 = molecular target: T3, PfNT1 (Plasmodium falciparum, UniProt Q8IDM6); test: cell-based; assay type: cell-based; settings: for activity at 5000 µM: total [3H]CQ transport
T3 construct: expressed in transfected cells; host or cells: Xenopus laevis oocytes (stage V-VI), cRNA-injected
Method in brief: as §2

PfCRT^Dd2 [6] = molecular target: T4, PfCRT^Dd2 (Plasmodium falciparum, UniProt Q9N623, A220S/I356T/K76T/M74I/N326S/N75E/Q271E/R371I); test: cell-based; assay type: cell-based; settings: […]; for activity at 45000 µM: [test solute]i = 45 mM (30 mM for some solutes due to solubility)
Method in brief: as §2

non-expressing oocytes [7] = assay type: cell-based, Xenopus laevis; settings: total [3H]CQ transport; for Uptake of [3H]CQ (% non-expressing oocyte control), trans-stimulation: non-expressing oocytes, normalised to the oocyte type control; for Uptake of [3H]CQ (% PfCRTDd2 control), trans-stimulation, non-expressing oocytes: mean ± SEM, SEM
Method in brief: as §2

PfCRT^Ecu1110 [8] = molecular target: T2, PfCRT^Ecu1110; test: [3H]CQ uptake into Xenopus oocytes, cis-inhibition by unlabelled solute; assay type: cell-based
Method in brief: as §1

PfCRT^Dd2 [9] = molecular target: T4, PfCRT^Dd2; test: as above; assay type: cell-based
Method in brief: as §1

PfCRT [10] = test: Potential co-substrates tested for influx of VF-6 via PfCRT into the oocyte; assay type: cell-based, Plasmodium falciparum; set-up: key: X: Compounds that have been tested as potential co-substrates but are not required for influx of VF-6 via PfCRT into the oocyte
[11] = Oocyte, mean ± SEM, SEM, read-out: Uptake of [3H]CQ (% PfCRTDd2 control), cis-inhibition, non-expressing oocytes
[12] = non-expressing oocytes, normalised to the oocyte type control, read-out: Uptake of [3H]CQ (% non-expressing oocyte control), cis-inhibition
[13] = PfCRT3D7 oocytes, normalised to the oocyte type control, read-out: Uptake of [3H]CQ (% PfCRT3D7 control), cis-inhibition
[14] = mean ± SEM, SEM, read-out: Uptake of [3H]CQ (% PfCRTDd2 control), cis-inhibition, PfCRT3D7
[15] = read-out: PfCRT-mediated [3H]CQ transport, cis-inhibition (% PfCRTEcu1110 control)
[16] = read-out: Uptake of [3H]CQ (% PfCRTDd2 control), cis-inhibition, PfCRTEcu1110, SEM
[17] = read-out: Uptake of [3H]CQ (% PfCRTEcu1110 control), cis-inhibition
[18] = read-out: [3H]CQ transport (% PfCRTEcu1110 control), cis-inhibition, PfCRTEcu1110, SEM
[19] = read-out: PfCRT-mediated [3H]CQ transport, cis-inhibition (% PfCRTDd2 control)
[20] = read-out: Uptake of [3H]CQ (% PfCRTDd2 control), cis-inhibition, PfCRTDd2, SEM

T3 sequence (Q8IDM6 whole entry): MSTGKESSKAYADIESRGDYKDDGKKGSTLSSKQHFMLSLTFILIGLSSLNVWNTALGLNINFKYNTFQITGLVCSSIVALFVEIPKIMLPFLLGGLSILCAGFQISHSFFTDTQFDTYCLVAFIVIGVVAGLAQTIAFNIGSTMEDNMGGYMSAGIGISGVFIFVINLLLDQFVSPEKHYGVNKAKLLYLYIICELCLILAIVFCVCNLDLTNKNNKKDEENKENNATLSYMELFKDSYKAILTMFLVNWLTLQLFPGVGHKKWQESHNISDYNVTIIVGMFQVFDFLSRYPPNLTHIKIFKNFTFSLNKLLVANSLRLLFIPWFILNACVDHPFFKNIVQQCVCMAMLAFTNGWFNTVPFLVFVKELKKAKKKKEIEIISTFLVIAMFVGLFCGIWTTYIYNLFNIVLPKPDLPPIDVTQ
T2 sequence (Q9N623 whole entry A220S/I356L/K76T/N326D): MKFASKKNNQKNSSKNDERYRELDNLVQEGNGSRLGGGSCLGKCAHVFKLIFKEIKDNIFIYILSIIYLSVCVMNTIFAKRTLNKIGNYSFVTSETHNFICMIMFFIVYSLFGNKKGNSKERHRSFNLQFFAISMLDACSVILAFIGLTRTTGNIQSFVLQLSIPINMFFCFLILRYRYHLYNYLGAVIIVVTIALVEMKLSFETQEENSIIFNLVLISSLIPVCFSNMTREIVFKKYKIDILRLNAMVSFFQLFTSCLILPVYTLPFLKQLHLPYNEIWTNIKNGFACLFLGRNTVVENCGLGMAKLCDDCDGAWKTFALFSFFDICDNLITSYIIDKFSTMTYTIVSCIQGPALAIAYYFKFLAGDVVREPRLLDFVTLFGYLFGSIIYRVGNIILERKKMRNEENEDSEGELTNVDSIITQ
T4 sequence (Q9N623 whole entry A220S/I356T/K76T/M74I/N326S/N75E/Q271E/R371I): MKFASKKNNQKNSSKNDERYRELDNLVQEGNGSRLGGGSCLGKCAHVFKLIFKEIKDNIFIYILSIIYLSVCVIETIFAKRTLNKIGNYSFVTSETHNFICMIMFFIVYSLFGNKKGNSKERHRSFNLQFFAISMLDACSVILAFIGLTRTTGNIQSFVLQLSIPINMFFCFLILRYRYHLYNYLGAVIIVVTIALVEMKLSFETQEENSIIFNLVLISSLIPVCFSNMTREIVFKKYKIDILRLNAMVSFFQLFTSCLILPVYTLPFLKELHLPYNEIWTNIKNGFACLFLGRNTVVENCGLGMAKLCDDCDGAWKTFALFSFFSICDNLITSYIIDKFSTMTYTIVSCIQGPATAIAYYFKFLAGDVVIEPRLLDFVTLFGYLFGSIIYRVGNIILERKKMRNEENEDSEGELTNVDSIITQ
T1 sequence (Q8IBZ9 59-398): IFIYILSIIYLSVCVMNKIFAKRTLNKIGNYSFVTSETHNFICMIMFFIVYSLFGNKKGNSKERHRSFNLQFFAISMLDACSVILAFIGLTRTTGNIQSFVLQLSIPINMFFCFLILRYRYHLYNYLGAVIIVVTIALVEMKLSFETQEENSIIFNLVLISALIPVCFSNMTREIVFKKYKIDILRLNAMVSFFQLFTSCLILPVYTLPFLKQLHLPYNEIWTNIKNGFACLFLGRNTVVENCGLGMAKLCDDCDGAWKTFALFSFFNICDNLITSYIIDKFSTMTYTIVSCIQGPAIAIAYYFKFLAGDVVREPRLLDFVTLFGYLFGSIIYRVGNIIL

CC[C@H](C)[C@H](N)C(=O)O [L-isoleucine] gave an inhibition at 500 µM (non-expressing oocytes [1]; [11]) of 2.7 ± 0.08%, an inhibition at 1000 µM (non-expressing oocytes [1]; [11]) of 3.3 ± 0.03% and an inhibition at 2000 µM (non-expressing oocytes [1]; [11]) of 2.4 ± 0.07%. The inhibition at 500 µM (non-expressing oocytes [1]; [12]) was 94 ± 7.5%, the inhibition at 1000 µM (non-expressing oocytes [1]; [12]) was 100 ± 4.5% and the inhibition at 2000 µM (non-expressing oocytes [1]; [12]) was 101 ± 3.2%. For the same compound, the “Tested as potential co-substrate but not required for influx of VF-6 via PfCRT into the oocyte” value (PfCRT [2]) was “X”, the inhibition at 500 µM (PfCRT^3D7 [3]; [13]) was 99 ± 4.7% and the inhibition at 1000 µM (PfCRT^3D7 [3]; [13]) was 98 ± 5.7%. It also gave an inhibition at 2000 µM (PfCRT^3D7 [3]; [13]) of 102 ± 4.7%, an inhibition at 500 µM (PfCRT^3D7 [3]; [14]) of 3.1 ± 0.07% and an inhibition at 1000 µM (PfCRT^3D7 [3]; [14]) of 2.8 ± 0.04%. The inhibition at 2000 µM (PfCRT^3D7 [3]; [14]) was 2.8 ± 0.02%, the activity at 5000 µM (PfCRT^3D7 [4]; PfCRT3D7 oocytes, [test solute]i = 5 mM, total [3H]CQ transport, normalised to the oocyte type control, read-out: Uptake of [3H]CQ (% PfCRT3D7 control), trans-stimulation) was 100 ± 3.6% and the “[3H]CQ transport (% PfCRT3D7 control), trans-stimulation, PfCRT3D7” value (PfCRT^3D7 [4]; SEM) was 0.3 ± 0.02 % PfCRT3D7 control. The activity at 5000 µM (PfCRT^3D7 [4]; [test solute]i = 5 mM (intracellular), PfCRT3D7 oocytes, normalised to oocyte type control, read-out: PfCRT-mediated [3H]CQ transport, trans-stimulation (% PfCRT3D7 control)) was 98 ± 4.1%, the activity at 45000 µM (PfCRT^3D7 [4]; SEM, read-out: Uptake of [3H]CQ (% PfCRTDd2 control), trans-stimulation, PfCRT3D7) was 3.3 ± 0.01% and the activity at 45000 µM (PfCRT^3D7 [4]; read-out: PfCRT-mediated [3H]CQ transport, trans-stimulation (% PfCRT3D7 control)) was 96 ± 3.5%. For the same compound, the activity at 45000 µM (PfCRT^3D7 [4]; read-out: Uptake of [3H]CQ (% PfCRT3D7 control), trans-stimulation) was 98 ± 4.3%, the activity at 5000 µM (PfCRT^3D7 [4]; total [3H]CQ transport, [test solute]i = 5 mM (intracellular), mean ± SEM, SEM, read-out: Uptake of [3H]CQ (% PfCRTDd2 control), trans-stimulation, PfCRT3D7) was 3.3 ± 0.02% and the activity at 5000 µM (PfCRT^Ecu1110 [5]; pH 5.5, read-out: PfCRT-mediated [3H]CQ transport, trans-stimulation (% PfCRTEcu1110 control), [test solute]i = 5 mM (intracellular), PfCRTEcu1110 oocytes, normalised to oocyte type control) was 97 ± 2.1%. For the same compound, the activity at 5000 µM (PfCRT^Ecu1110 [5]; pH 5.5, read-out: Uptake of [3H]CQ (% PfCRTEcu1110 control), trans-stimulation, PfCRTEcu1110 oocytes, [test solute]i = 5 mM, total [3H]CQ transport, normalised to the oocyte type control) was 99 ± 3.5%, the activity at 45000 µM (PfCRT^Ecu1110 [5]; pH 5.5, read-out: Uptake of [3H]CQ (% PfCRTEcu1110 control), trans-stimulation, PfCRTEcu1110 oocytes, [test solute]i = 45 mM (30 mM for some solutes due to solubility), total [3H]CQ transport, normalised to the oocyte type control) was 99 ± 3.2% and the activity at 5000 µM (PfCRT^Ecu1110 [5]; read-out: Uptake of [3H]CQ (% PfCRTDd2 control), trans-stimulation, PfCRTEcu1110, total [3H]CQ transport, [test solute]i = 5 mM (intracellular), mean ± SEM, SEM) was 35 ± 1.5%. For the same compound, the activity at 45000 µM (PfCRT^Ecu1110 [5]; read-out: Uptake of [3H]CQ (% PfCRTDd2 control), trans-stimulation, PfCRTEcu1110, total [3H]CQ transport, [test solute]i = 45 mM (intracellular; 30 mM for some solutes due to solubility), mean ± SEM, SEM) was 35 ± 1.1%, the activity at 5000 µM (PfNT1; PfNT1 oocytes, [test solute]i = 5 mM, normalised to the oocyte type control, read-out: Uptake of [3H]CQ (% PfNT1 control), trans-stimulation) was 98 ± 2.2% and the activity at 45000 µM (PfNT1; SEM, read-out: Uptake of [3H]CQ (% PfCRTDd2 control), trans-stimulation, PfNT1) was 2.2 ± 0.03%. For the same compound, the activity at 45000 µM (PfNT1; read-out: Uptake of [3H]CQ (% PfNT1 control), trans-stimulation) was 100 ± 2.5%, the activity at 5000 µM (PfNT1; [test solute]i = 5 mM (intracellular), mean ± SEM, SEM, read-out: Uptake of [3H]CQ (% PfCRTDd2 control), trans-stimulation, PfNT1) was 3.1 ± 0.02% and the activity at 5000 µM (PfCRT^Dd2 [6]; pH 5.5, read-out: PfCRT-mediated [3H]CQ transport, trans-stimulation (% PfCRTDd2 control), [test solute]i = 5 mM (intracellular), PfCRTDd2 oocytes, normalised to oocyte type control) was 94 ± 5.1%. For the same compound, the activity at 5000 µM (PfCRT^Dd2 [6]; pH 5.5, read-out: Uptake of [3H]CQ (% PfCRTDd2 control), trans-stimulation, PfCRTDd2, total [3H]CQ transport, [test solute]i = 5 mM (intracellular), mean ± SEM, SEM) was 96 ± 4.4%, the activity at 5000 µM (PfCRT^Dd2 [6]; pH 5.5, read-out: Uptake of [3H]CQ (% PfCRTDd2 control), trans-stimulation, PfCRTDd2 oocytes, [test solute]i = 5 mM, total [3H]CQ transport, normalised to the oocyte type control) was 96 ± 4.4% and the activity at 45000 µM (PfCRT^Dd2 [6]; pH 5.5, read-out: Uptake of [3H]CQ (% PfCRTDd2 control), trans-stimulation, PfCRTDd2 oocytes, total [3H]CQ transport, normalised to the oocyte type control) was 100 ± 2.2%. For the same compound, the activity at 5000 µM (PfCRT^Dd2 [6]; pH 5.5, read-out: [3H]CQ transport (% PfCRTDd2 control), trans-stimulation, PfCRTDd2, trans-stimulation, [test solute]i = 5 mM (injected), PfCRT-mediated component (background subtracted), mean ± SEM, SEM) was 94 ± 5.1%, the activity at 45000 µM (PfCRT^Dd2 [6]; pH 5.5, read-out: [3H]CQ transport (% PfCRTDd2 control), trans-stimulation, PfCRTDd2, trans-stimulation, PfCRT-mediated component (background subtracted), mean ± SEM, SEM) was 98 ± 3.6% and the “Uptake of [3H]CQ (% non-expressing oocyte control), trans-stimulation” value (non-expressing oocytes [7]; [test solute]i = 5 mM) was 97 ± 1.3 % non-expressing oocyte control. For the same compound, the “Uptake of [3H]CQ (% non-expressing oocyte control), trans-stimulation” value (non-expressing oocytes [7]; [test solute]i = 45 mM (30 mM for some solutes due to solubility)) was 100 ± 2.7 % non-expressing oocyte control, the “Uptake of [3H]CQ (% PfCRTDd2 control), trans-stimulation, non-expressing oocytes” value (non-expressing oocytes [7]; [test solute]i = 5 mM (intracellular)) was 3.2 ± 0.06 % PfCRTDd2 control and the “Uptake of [3H]CQ (% PfCRTDd2 control), trans-stimulation, non-expressing oocytes” value (non-expressing oocytes [7]; [test solute]i = 45 mM (intracellular; 30 mM for some solutes due to solubility)) was 2.5 ± 0.05 % PfCRTDd2 control. The inhibition at 500 µM (PfCRT^Ecu1110 [8]; [15]) was 93 ± 5.9%, the inhibition at 1000 µM (PfCRT^Ecu1110 [8]; [15]) was 98 ± 4.1% and the inhibition at 2000 µM (PfCRT^Ecu1110 [8]; [15]) was 98 ± 5.2%. For the same compound, the inhibition at 500 µM (PfCRT^Ecu1110 [8]; [16]) was 31 ± 1.7%, the inhibition at 1000 µM (PfCRT^Ecu1110 [8]; [16]) was 33 ± 1.8% and the inhibition at 2000 µM (PfCRT^Ecu1110 [8]; [16]) was 33 ± 1.5%. It also gave an inhibition at 500 µM (PfCRT^Ecu1110 [8]; [17]) of 96 ± 6.9%, an inhibition at 1000 µM (PfCRT^Ecu1110 [8]; [17]) of 100 ± 6.9% and an inhibition at 2000 µM (PfCRT^Ecu1110 [8]; [17]) of 101 ± 9.5%. The inhibition at 500 µM (PfCRT^Ecu1110 [8]; [18]) was 28 ± 0.3%, the inhibition at 1000 µM (PfCRT^Ecu1110 [8]; [18]) was 30 ± 0.6% and the inhibition at 2000 µM (PfCRT^Ecu1110 [8]; [18]) was 30 ± 0.5%. The inhibition at 500 µM (PfCRT^Dd2 [9]; [19]) was 95 ± 5.1%, the inhibition at 2000 µM (PfCRT^Dd2 [9]; [19]) was 96 ± 3.7% and the inhibition at 500 µM (PfCRT^Dd2 [9]; [20]) was 97 ± 4.9%. For the same compound, the inhibition at 1000 µM (PfCRT^Dd2 [9]; [20]) was 100 ± 6.5%, the inhibition at 2000 µM (PfCRT^Dd2 [9]; [20]) was 98 ± 6.2% and the “Tested as potential co-substrate but not required for influx of VF-6 via PfCRT into the oocyte” value (PfCRT [10]) was “X”.
